In US20230272448A1, “AN IMPROVED SUBSTRATE COCKTAIL ASSAY FOR HIGH-THROUGHPUT SCREENING OF CYTOCHROME P450 INHIBITORS” (priority 2020, published 2023):

Tests used:
[1] = target: T1, CYP2A6 (Homo sapiens, UniProt P11509); settings: literature reported Km; metabolite hydroxyl-coumarine; cited from earlier work
T1 sequence (P11509 1-494): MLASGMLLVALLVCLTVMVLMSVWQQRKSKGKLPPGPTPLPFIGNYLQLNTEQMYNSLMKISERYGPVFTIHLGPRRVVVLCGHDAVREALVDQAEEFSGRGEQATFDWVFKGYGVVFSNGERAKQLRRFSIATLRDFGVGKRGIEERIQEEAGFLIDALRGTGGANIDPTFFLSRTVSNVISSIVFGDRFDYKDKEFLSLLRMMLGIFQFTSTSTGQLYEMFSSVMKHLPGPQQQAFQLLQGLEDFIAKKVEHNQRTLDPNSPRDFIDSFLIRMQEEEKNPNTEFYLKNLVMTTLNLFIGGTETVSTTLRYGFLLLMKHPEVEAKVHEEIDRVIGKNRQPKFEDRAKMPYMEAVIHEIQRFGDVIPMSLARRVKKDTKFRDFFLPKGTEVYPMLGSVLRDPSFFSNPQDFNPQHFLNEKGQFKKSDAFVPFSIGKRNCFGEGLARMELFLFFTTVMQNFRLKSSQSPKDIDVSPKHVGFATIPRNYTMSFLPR

[2] = target: T2, CYP3A4 (Homo sapiens, UniProt P08684); settings: literature reported Km; metabolite hydroxyl-testosterone; cited from earlier work
[3] = target: T3, CYP2C8 (Homo sapiens, UniProt P10632); assay: Single substrate (individual) CYP inhibition assay in human liver microsomes, LC-MS/MS; settings: read-out: Single Substrate IC50; substrate Paclitaxel 5 μM; HLM 0.2 mg/mL; 30 min; n = 4
T3 sequence (P10632 1-490): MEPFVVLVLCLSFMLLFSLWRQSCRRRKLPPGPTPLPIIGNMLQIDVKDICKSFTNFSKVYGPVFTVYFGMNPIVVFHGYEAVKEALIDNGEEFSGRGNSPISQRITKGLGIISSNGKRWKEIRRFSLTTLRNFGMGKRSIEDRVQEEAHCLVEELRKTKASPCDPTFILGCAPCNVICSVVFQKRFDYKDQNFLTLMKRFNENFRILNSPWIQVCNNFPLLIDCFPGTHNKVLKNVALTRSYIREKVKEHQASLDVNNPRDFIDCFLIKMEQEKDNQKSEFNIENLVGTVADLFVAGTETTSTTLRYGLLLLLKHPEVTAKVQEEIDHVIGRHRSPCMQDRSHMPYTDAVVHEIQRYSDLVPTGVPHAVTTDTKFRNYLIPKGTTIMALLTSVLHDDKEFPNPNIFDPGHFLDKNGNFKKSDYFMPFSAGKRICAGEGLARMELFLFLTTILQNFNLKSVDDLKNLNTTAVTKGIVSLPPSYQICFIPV

[4] = target: T4, CYP2B6 (Homo sapiens, UniProt P20813); settings: literature reported Km; metabolite hydroxyl-bupropion; cited from earlier work
T4 sequence (P20813 1-491): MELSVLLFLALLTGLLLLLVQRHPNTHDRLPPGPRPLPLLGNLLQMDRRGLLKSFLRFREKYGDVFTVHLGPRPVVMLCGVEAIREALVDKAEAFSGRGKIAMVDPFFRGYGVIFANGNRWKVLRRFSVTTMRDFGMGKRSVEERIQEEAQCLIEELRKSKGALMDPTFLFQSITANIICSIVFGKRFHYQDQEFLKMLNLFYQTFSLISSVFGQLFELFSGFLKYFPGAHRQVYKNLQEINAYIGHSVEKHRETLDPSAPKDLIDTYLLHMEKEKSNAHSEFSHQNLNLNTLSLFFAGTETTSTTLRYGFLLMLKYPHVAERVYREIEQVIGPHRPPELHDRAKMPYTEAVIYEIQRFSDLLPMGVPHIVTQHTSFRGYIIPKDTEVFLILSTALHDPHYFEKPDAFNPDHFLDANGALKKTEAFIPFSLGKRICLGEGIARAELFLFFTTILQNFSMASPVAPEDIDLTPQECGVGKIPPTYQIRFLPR

[5] = target: T3, CYP2C8; settings: literature reported Km; metabolite 6-alpha hydroxyl-paclitaxel; cited from earlier work
[6] = target: CYP2C9 (Homo sapiens, UniProt P11712); settings: literature reported Km; metabolite hydroxyl-diclofenac; cited from earlier work
[7] = target: T2, CYP3A4; settings: reported; cited from earlier work
[8] = target: T4, CYP2B6; settings: reported; cited from earlier work

T2 sequence (P08684 whole entry): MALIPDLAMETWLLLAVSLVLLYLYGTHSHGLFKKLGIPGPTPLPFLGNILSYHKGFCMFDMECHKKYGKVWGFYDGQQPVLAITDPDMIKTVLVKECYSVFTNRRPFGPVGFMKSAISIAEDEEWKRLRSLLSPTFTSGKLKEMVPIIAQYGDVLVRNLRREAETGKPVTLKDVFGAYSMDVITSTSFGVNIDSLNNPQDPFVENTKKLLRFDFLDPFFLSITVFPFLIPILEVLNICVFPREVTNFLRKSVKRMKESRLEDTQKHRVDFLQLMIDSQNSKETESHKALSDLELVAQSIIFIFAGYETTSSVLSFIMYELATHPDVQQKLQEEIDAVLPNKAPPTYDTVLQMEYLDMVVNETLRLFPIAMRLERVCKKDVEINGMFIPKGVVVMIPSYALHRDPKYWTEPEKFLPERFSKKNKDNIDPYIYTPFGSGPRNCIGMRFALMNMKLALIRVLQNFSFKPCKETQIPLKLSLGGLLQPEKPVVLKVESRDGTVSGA
CYP2C9, sequence (P11712 whole entry): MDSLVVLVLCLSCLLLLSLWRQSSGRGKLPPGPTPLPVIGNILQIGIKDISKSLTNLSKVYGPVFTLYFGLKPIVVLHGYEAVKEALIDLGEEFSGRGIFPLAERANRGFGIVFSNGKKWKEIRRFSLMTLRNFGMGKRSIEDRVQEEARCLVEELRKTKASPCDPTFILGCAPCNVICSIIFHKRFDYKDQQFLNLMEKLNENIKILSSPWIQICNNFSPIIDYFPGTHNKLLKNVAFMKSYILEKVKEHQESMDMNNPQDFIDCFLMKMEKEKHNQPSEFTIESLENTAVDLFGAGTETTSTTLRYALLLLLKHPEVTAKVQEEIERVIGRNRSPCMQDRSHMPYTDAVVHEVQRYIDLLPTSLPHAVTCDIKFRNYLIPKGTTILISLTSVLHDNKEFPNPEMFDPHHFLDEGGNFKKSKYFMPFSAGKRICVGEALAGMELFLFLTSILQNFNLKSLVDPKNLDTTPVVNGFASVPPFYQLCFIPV

O=c1ccc2ccccc2o1 [Coumarin]
Km [1]: 1.17 ± 0.118 µM

C[C@]12CC[C@H]3[C@@H](CCC4=CC(=O)CC[C@@]43C)[C@@H]1CC[C@@H]2O [Testosterone]
Km [2]: 48.5 ± 3.75 µM

CC(C)(O)c1ccccc1CC[C@@H](SCC1(CC(=O)O)CC1)c1cccc(/C=C/c2ccc3ccc(Cl)cc3n2)c1 [Montelukast]
IC50 [3]: 521 nM

CC(NC(C)(C)C)C(=O)c1cccc(Cl)c1 (centres unmarked) [Bupropion]
Km [4]: 103 ± 7.65 µM

CC(=O)O[C@H]1C(=O)[C@@]2(C)[C@H]([C@H](OC(=O)c3ccccc3)[C@]3(O)C[C@H](OC(=O)[C@H](O)[C@@H](NC(=O)c4ccccc4)c4ccccc4)C(C)=C1C3(C)C)[C@]1(OC(C)=O)CO[C@@H]1C[C@@H]2O [Paclitaxel]
Km [5]: 11.5 ± 7.5 µM

O=C(O)Cc1ccccc1Nc1c(Cl)cccc1Cl [Diclofenac]
Km [6]: 22 ± 11 µM

CCOc1ccc(NC(C)=O)cc1 [Phenacetin]
Inhibition of CYP3A4 by probe substrate [7]: weakly inhibit | Inhibition of CYP2B6 by probe substrate [8]: weakly inhibit
